Columns and labels:
[1] = tested on: GIR mRNA in rat prefrontal cortex; test: GIR mRNA expression following chronic amphetamine administration (competitive RT-PCR); format: in vivo; conditions: for GIR mRNA levels in prefrontal cortex: mean±SE, n=6
Experimental: (§1) GIR mRNA Expression Following Chronic Amphetamine Administration. Male Sprague-Dawley rats (200-250g, Harlan Sprague-Dawley Laboratories, Indianapolis, Ind.) received subcutaneous injection of either d-amphetamine (AMPH) (2.5 mg/kg) or saline (1 ml/kg) in their home cages once daily for 5 consecutive days (days 1-5). On day 9, four days following completion of this pre-treatment regimen, all animals were transferred to Residential Activity Chambers (RACs) (Segal and Kuczenski, 1987; Richtand et al., 2000), and received saline injection (1 ml/kg) on days 10 and 11 to measure conditioned response to injection. On day 12, seven days following completion of the pre-treatment regimen, all rats received AMPH (2.5 mg/kg) and locomotor activity was determined by photobeam monitoring for 150 minutes following injection. Locomotor activity is expressed as crossovers, defined as the number of times the animal crosses into any of four quadrants subdividing the enclosure. All animals were sacrificed by decapitation 4 hours following injection and total RNA was extracted from prefrontal cortex for determination of GIR mRNA expression. In a separate experiment, rats were injected with either AMPH (2.5 mg/kg) or saline (1 ml/kg) for 5 consecutive days, and sacrificed by decapitation 7 days after the last injection without the final AMPH challenge. Thus, four groups were generated: SAL-AMPH (Saline×5 days and AMPH at challenge), AMPH-AMPH (AMPH×5 days and AMPH at challenge), SAL (Saline×5 days), and AMPH (AMPH×5 days).
Construction of Competitor DNA and Quantitative RT-PCR. To construct the mutant template for competitive PCR, a 20 bp GIR sequence (5′-[…]-3′, 1213-1232 bp in FIG. 1; SEQ ID NO: 18) was incorporated into the upstream primer so that a rat GIR cDNA fragment was amplified by RT-PCR using the chimeric upstream primer (5′-[…]-3′, 1213-1232 bp in FIG. 1; SEQ ID NO:19) and the downstream primer (5′-CGGCCACAGTGGGTTCCAC-3′, 1575-1557 in FIG. 1; SEQ ID NO:13). The 262 bp PCR product was subcloned into pGEM-T vector (Promega, Madison, Wis.). The plasmid DNA was purified (Qiagen, Valencia, Calif.) and insert was verified by DNA sequencing. A fragment containing the mutant rat GIR template (262 bp) was released by EcoRI digestion and purified by agarose gel electrophoresis. DNA concentration was determined spectrophotometrically. Serial dilutions of mutant template were prepared.
The amount of GIR mRNA was quantitated by competitive RT-PCR as described previously (Miao et al., 2000). Briefly, reverse transcription was performed with 2 μg of total RNA using a non-specific random hexamer primer (Promega, Madsion, Wis.). One μl of first strand cDNA was mixed with known amounts of linearized competitor DNA ranging from […], and subjected to co-amplification with GIR-specific primers (5′-[…]-3′, 1213-1232 bp, SEQ ID NO:IS; and 5′-CGGCCACAGTGGGTTCCAC-3′, 1575-1557 bp in FIG. 1, SEQ ID NO:14). PCR was run for 30 cycles of 94° C./1 min, 60° C./2 min 72° C./3 min, and the PCR products were electrophoresed on 1.2% agarose gel. The intensities of bands, corresponding to the products from the GIR mRNA and the competitor with 101-bp size difference, was analyzed densitometrically by BioImage system combined with NIH software (Bio-Rad, Hercules, Calif.). The intensity ratios between the two bands were logarithmically plotted against the known initial input of competitor template, and the amount of GIR mRNA in the total RNA samples was calculated by linear regression. […]

Male Sprague-Dawley rats = test: Locomotor activity (crossovers) after amphetamine challenge, behavioral sensitization; format: in vivo, rat; conditions: AMPH 2.5 mg/kg challenge, mean±SE
Experimental: as §1

C[C@H](N)Cc1ccccc1 [amphetamine, D-Amphetamine]
GIR mRNA levels in prefrontal cortex, increase of AMPH-AMPH rats compared to SAL-AMPH rats ([1]; AMPH 2.5 mg/kg s.c. x5 days, AMPH challenge 7 days after, sacrificed 4 hours after injection, n=6, P<0.05): 1.38 fold
GIR mRNA levels in prefrontal cortex, increase of AMPH rats compared to SAL rats ([1]; AMPH 2.5 mg/kg x5 days, no challenge injection, 7 days after last injection, n=6, P<0.05): 1.70 fold
GIR mRNA levels in prefrontal cortex ([1]; AMPH rats (AMPH x5 days, no challenge), 7 days after amphetamine ceased): 3.65±0.22 fg/100 ng total RNA
GIR mRNA levels in prefrontal cortex ([1]; AMPH-AMPH rats (AMPH x5 days and AMPH at challenge), 2.5 mg/kg s.c.): 2.97(±0.26 fg/100 ng total RNA
GIR mRNA levels in prefrontal cortex ([1]; SAL-AMPH rats (saline x5 days and AMPH 2.5 mg/kg at challenge)): 2.27(±0.22 fg/100 ng total RNA
locomotion at 12-60 min post-injection (focused stereotypy phase) (Male Sprague-Dawley rats; AMPH-AMPH rats, n=6, P<0.0001): 50.20±12.63 crossovers/12-60 min
locomotion at 60-150 min (post-stereotypy locomotion phase) (Male Sprague-Dawley rats; AMPH-AMPH rats, n=6, P<0.05): 496.67±70.28 crossovers/60-150min
locomotion at 12-60 min post-injection (focused stereotypy phase) (Male Sprague-Dawley rats; SAL-AMPH rats, n=6): 286.00±27.57 crossovers/12-60 min
locomotion at 60-150 min (post-stereotypy locomotion phase) (Male Sprague-Dawley rats; SAL-AMPH rats, n=6): 312.25±29.17 crossovers/60-150min

From US20050009023A1, “Glucocorticoid-induced receptor and methods of use” (priority 2001, published 2005)
